Measured values taken from patent US20260337225A1, “SMALL PEPTIDE AND USE THEREOF IN MUCOSAL REPAIR” (FORREST BIO-PHARM (SHENZHEN) CO., LTD., priority 2022, published 2026).
Values joined by “and” are separate entries in the source; they are usually repeats but may differ in a detail not shown here. Equal entries are not always repeated. No end group written: not given here.

What was measured:
[1] = system: rat model of chronic gastric ulcer; assay: Rat model of chronic gastric ulcer (anhydrous ethanol followed by aspirin); type: in vivo
Description: The function of the small peptides obtained in Embodiment 2 was validated in the present embodiment by using a rat model of chronic gastric ulcer.
Control group (model group): A rat model of chronic gastric ulcer model was constructed by intragastric administration of anhydrous ethanol (1 mL/200 g), followed by intragastric administration of 200 mg/kg aspirin 2 h later. The rats were administered with aspirin once daily for 4 days. At day 5, the rats were administered with an equal volume of saline.
Blank group: The rats were administered with an equal volume of saline.
Drug treatment groups: A rat model of chronic gastric ulcer was constructed as above-mentioned. At day 5, the rats were respectively administered with the rice polypeptide mixture (50 mg/kg), small peptide P1 (0.5 mg/kg), or small peptide P2 (0.5 mg/kg) twice daily for 3 days. On day 4, the rats were sacrificed and their gastric necropsy was performed.
Positive control group (omeprazole 2.6 mg/kg): A rat model of chronic gastric ulcer was constructed as above. At day 5, the rats were administered with omeprazole (2.6 mg/kg) twice daily for 3 days. On day 4, The rats were sacrificed and their gastric necropsy was performed.
Each group consisted of 10 rats. After 24 h of modeling, the rats were sacrificed to extract the gastric tissue, for measuring gastric pH, and observing changes in ulcer area via gastric tissue dissection. Liver and kidney tissues were collected for pathological section observation to assess drug safety.

Rat kidney = assay: Animal safety observation: rat kidney injury (serum blood urea nitrogen levels); type: in vivo; conditions: 14 days; for Blood Urea Nitrogen Levels: intragastric gavage, rat serum, individual rats (Rat 1-6)
Description: (§1) The rats were administered with the small peptides via intragastric gavage at doses of 500 mg/kg and 1000 mg/kg daily for 14 days. Changes in body weight were recorded. On day 14, the rats were sacrificed to measure alaninetransaminase (ALT) activity and blood urea nitrogen (BUN) levels in rat serum for assessing whether there was hepatotoxicity and nephrotoxicity in rats.

[2] = system: mouse model of acute gastric ulcer; assay: Mouse model of acute gastric ulcer (anhydrous ethanol); type: in vivo
Description: In this embodiment, the function of the small peptides obtained in Embodiment 2 was validated using a mouse model of acute gastric ulcer.
Control group (model group): A mouse mode of acute gastric ulcer was constructed using anhydrous ethanol (0.1 mL/10 g) (referring to the literature of Study on Action of kangfuxin Solution on Experimental Gastric ulcer [J]. Chinese Traditional Patent Medicine, 2001, 23(2): 122-124. DOI: 10.3969/j.issn.1001-1528.). After modeling, the mice were administered with an equal volume of saline.
Blank group: The mice were administered with an equal volume of saline.
Drug treatment groups: A mouse mode of acute gastric ulcer was constructed by treating the mouse with anhydrous ethanol (0.1 mL/10 g). At 2 h, 12 h, and 22 h after modeling, the mice were administered with the rice polypeptide mixture (50 mg/kg) as the mixture group, small peptide P1 (0.5 mg/kg) as the P1 group, and small peptide P2 (0.5 mg/kg) as the P2 group, respectively.
Each group consisted of 8 mice. After 24 h of modeling, the mice were sacrificed, to extract the gastric tissue, and observe changes in bleeding points and ulcer area via gastric tissue dissection.

Rat liver = assay: Animal safety observation: rat liver injury (serum alaninetransaminase activity); type: in vivo; conditions: 14 days; for Alaninetransaminase Activity, Average / Alaninetransaminase Activity: intragastric gavage, rat serum; for Alaninetransaminase Activity, Average: average of 6 rats, saline average P1 35.83333, P2 30.83333; for Alaninetransaminase Activity: individual rats (Rat 1-6)
Description: as §1

[3] = system: normal human hepatic parenchymal L-02 cells; assay: Hepatotoxicity: cytotoxicity in L-02 cells by CCK-8 assay; type: cell-based; conditions: 10-200 μg/mL, 24 h, in words
Description: Referring to the method from a literature (Determination of emodin in L-02 cells and cell culture media with liquid chromatography-mass spectrometry: Application to a cellular toxicokinetic study. J Pharm Biomed Anal. 2012; 71:71-78), normal human hepatic parenchymal L-02 cells (obtained from Shanghai Cell Bank) were seeded into 96-well plates and treated with small peptides P1 and P2 at concentrations of 0 μg/mL, 10 μg/mL, 20 μg/mL, 50 μg/mL, 100 μg/mL, and 200 μg/mL. After 24-hour stimulation, the cytotoxicity was assessed by Cell Counting Kit-8 (CCK-8) assay.

[4] = Animal safety observation: rat body weight; type: in vivo; conditions: for Rat body weight: 1000 mg/kg daily, intragastric gavage, individual rats, Rat 1-7 = c1-c7, 1000 mg/kg
Description: as §1

mucosal repair = assay: Screening of active monomers for mucosal repair effects; conditions: repeated experiments and screening; in words
Text: The inventors observed the active monomers in the polypeptide mixture of Polimi-1 rice variety by mass spectrometry analysis of the polypeptides from various ordinary rice varieties and Polimi-1 rice variety. The small peptides identical to ordinary rice varieties and with high levels in ordinary rice varieties were excluded by a method of exclusion. Finally, the small peptides with higher levels in Polimi-1 rice variety and lower levels in other ordinary rice varieties were selected for further study, as well as those with higher levels in Polimi-1 rice variety and absent in other ordinary rice varieties. Since peptides with molecular weights below 1500 Daltons were extracted from the mixed polypeptide mixture previously obtained, other peptides above this threshold were excluded.

[5] = system: normal human kidney-2 cells (HK-02, HK-2); assay: Nephrotoxicity: cytotoxicity in HK-2 cells by CCK-8 assay; type: cell-based; conditions: 10-200 μg/mL, 24 h, in words
Description: Referring to the method from a literature (Sinomenine improve diabetic nephropathy by inhibiting fibrosis and regulating the JAK2/STAT3/SOCS1 pathway in streptozotocin-induced diabetic rats. Life Sci. 2021; 265:118855), normal human kidney-2 cells (HK-02, HK-2) (Shanghai Cell Bank) were seeded into 96-well plates and administered with small peptides P1 and P2 at concentrations of 0 μg/mL, 10 μg/mL, 20 μg/mL, 50 μg/mL, 100 μg/mL, and 200 μg/mL. After 24-hour stimulation, the cytotoxicity was assessed by Cell Counting Kit-8 (CCK-8) assay.

[6] = 500 and 1000 mg/kg daily, rats, in words

With “GASRIIGVDL [Small peptide P1, GASRIIGVDL]” the Ulcer index ([1]; 0.5 mg/kg twice daily for 3 days, 10 rats, ratio of ulcer area to gastric mucosal tissue area, Control group 40.5 ± 5.3) was 5.8 ± 2.5%, the Ulcer inhibition rate ([1]; 0.5 mg/kg twice daily for 3 days, percentage reduction in ulcer area compared to the Control group) was 85.7% and the anti-ulcer effects ([1]; P1, P2 0.5 mg/kg, mixture 50 mg/kg, in words) was “exhibit anti-ulcer effects”. For the same sequence, the “P versus Positive control group” value ([1]; anti-ulcer effects compared to omeprazole 2.6 mg/kg, P1, P2 0.5 mg/kg, mixture 50 mg/kg) was greater than 0.05, the “Blood Urea Nitrogen Levels” value (Rat kidney; 500 mg/kg daily) was 25 mg/dL and 39 mg/dL and 29 mg/dL and 33 mg/dL and 36 mg/dL and 37 mg/dL and the “Blood Urea Nitrogen Levels” value (Rat kidney; 1000 mg/kg daily) was 28 mg/dL and 30 mg/dL (2×) and 32 mg/dL and 36 mg/dL and 34 mg/dL. The nephrotoxicity (Rat kidney; [6]) was “without hepatotoxicity and nephrotoxicity”, the Ulcer index ([2]; 0.5 mg/kg at 2 h, 12 h and 22 h after modeling, 8 mice, ratio of ulcer area to gastric mucosal tissue area, Control group 58.3 ± 10.1) was 8.2 ± 3.1% and the Ulcer inhibition rate ([2]; 0.5 mg/kg at 2 h, 12 h and 22 h after modeling, percentage reduction in ulcer area compared to the Control group) was 85.9%. For the same sequence, the “result compared to the mixture group” value ([2]; 0.5 mg/kg versus mixture 50 mg/kg, in words) was “better results than the mixture in larger dose”, the anti-ulcer effects ([2]; 0.5 mg/kg, in words) was “excellent anti-ulcer effects” and the “Alaninetransaminase Activity, Average” value (Rat liver; 500 mg/kg daily) was 27 IU/L. For the same sequence, the “Alaninetransaminase Activity” value (Rat liver; 500 mg/kg daily) was 35 IU/L and 44 IU/L and 20 IU/L and 15 IU/L and 21 IU/L and 27 IU/L, the “Alaninetransaminase Activity, Average” value (Rat liver; 1000 mg/kg daily) was 39.83 IU/L and the “Alaninetransaminase Activity” value (Rat liver; 1000 mg/kg daily) was 32 IU/L and 39 IU/L and 50 IU/L and 27 IU/L and 47 IU/L and 44 IU/L. For the same sequence, the hepatotoxicity (Rat liver; [6]) was “without hepatotoxicity”, the “viability of normal human liver cells L-02” value [3] was “no effect” and the hepatotoxicity ([3]; L-02 cells) was “no hepatotoxicity”. For the same sequence, the Rat body weight ([4]; Day 1) was 210 g and 214 g and 218 g and 217 g and 216 g (2×) and 213 g, the Rat body weight ([4]; Day 2) was 212 g and 215 g (2×) and 219 g and 220 g and 222 g and 217 g and the Rat body weight ([4]; Day 3) was 212 g and 216 g and 220 g and 221 g and 224 g and 209 g and 218 g. The Rat body weight ([4]; Day 4) was 214 g and 218 g, the Rat body weight ([4]; Day 5) was 215 g and 220 g (2×) and 224 g and 228 g (2×) and 225 g and the Rat body weight ([4]; Day 6) was 215 g and 227 g and 224 g and 230 g and 229 g and 223 g and 228 g. The Rat body weight ([4]; Day 7) was 216 g and 228 g and 229 g (2×) and 236 g and 231 g and 224 g, the Rat body weight ([4]; Day 8) was 218 g and 229 g and 232 g and 235 g and 233 g and 228 g and 231 g and the Rat body weight ([4]; Day 9) was 220 g and 229 g and 234 g (2×) and 238 g and 233 g and 230 g. The Rat body weight ([4]; Day 10) was 225 g and 231 g and 237 g and 239 g and 238 g and 234 g and 236 g, the Rat body weight ([4]; Day 11) was 226 g and 232 g and 238 g and 241 g (2×) and 237 g and 239 g and the Rat body weight ([4]; Day 12) was 227 g and 233 g and 238 g and 243 g (2×) and 244 g and 239 g. For the same sequence, the Rat body weight ([4]; Day 13) was 228 g and 235 g and 239 g and 244 g (2×) and 248 g and 240 g, the Rat body weight ([4]; Day 14) was 230 g and 237 g and 240 g and 247 g and 249 g and 243 g (2×) and the Rat body weight ([4]; Day 15) was 235 g and 238 g and 242 g and 248 g and 250 g and 245 g (2×). For the same sequence, the “effects on rat body weight” value ([4]; daily intragastric gavage for 14 days, in words) was “minimal effects”, the mucosal repair effects (mucosal repair) was “found to have mucosal repair effects” and the “viability of normal human kidney cells HK-02 (HK-2)” value [5] was “no effect”. The nephrotoxicity ([5]; HK-2 cells) was “no nephrotoxicity”.
